These results are taken from publication PMC11053168, “Agonist-selective activation of individual G-proteins by muscarinic receptors” (Scientific Reports, 2024).

Experiment [1] addresses T1, M1 receptor (Homo sapiens, UniProt P11229).
T1 sequence (P11229 1-460): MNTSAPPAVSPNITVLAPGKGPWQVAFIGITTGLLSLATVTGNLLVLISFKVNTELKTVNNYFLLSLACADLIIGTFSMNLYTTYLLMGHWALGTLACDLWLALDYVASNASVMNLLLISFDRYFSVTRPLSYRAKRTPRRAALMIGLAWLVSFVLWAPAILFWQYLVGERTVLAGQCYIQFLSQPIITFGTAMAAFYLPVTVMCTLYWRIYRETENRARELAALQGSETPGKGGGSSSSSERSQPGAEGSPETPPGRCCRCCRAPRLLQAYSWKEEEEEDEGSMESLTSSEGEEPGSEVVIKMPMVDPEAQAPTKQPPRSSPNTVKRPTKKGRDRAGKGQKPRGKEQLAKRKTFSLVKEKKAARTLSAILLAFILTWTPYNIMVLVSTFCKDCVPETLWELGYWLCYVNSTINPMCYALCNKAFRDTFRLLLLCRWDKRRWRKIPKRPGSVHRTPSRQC
In words: BRET real-time monitoring of Gq/11 activation via M1 in HEK293T/17 cells. It counts as cell-based. Details: expressed in transfected cells; host or cells: HEK293T/17 cells, transient transfection. The settings on record: for Activation of Gαq/11 types: saturating concentration (100 μM; 1 mM for JB-12-2, JB-13-1); for Activation magnitude at G11, % of CBC / Activation magnitude at G15, % of CBC / Activation magnitude at Gq, % of CBC / Activation magnitude at Gα14, % of CBC: 100 μM. Here is the method:
HE/K293T17 cells were obtained from The Global Bioresource Center ATCC (Manassas, VA, USA). Cells were grown in 100 mm petri dishes in Dulbecco’s modified Eagle’s medium (DMEM) supplemented with 10% fetal bovine serum (FBS), MEM non-essential amino acids, 1 mM sodium pyruvate, and antibiotics (100 units/ml penicillin and 100 μg/ml streptomycin) at 37 °C in a humidified incubator containing 5% CO2[41]. Transfection was performed according to Masuho et al.[41]. […] Gα14 subunit was co-transfected with Ric-8A chaperone (0.21 μg). Cells were cotransfected with a pcDNA3.1 construct encoding the catalytic subunit of pertussis toxin (PTX-S1) (0.21 μg) and constructs encoding Gα15, Gα14, Gα11, Gαq to ensure that the small BRET signals were not contaminated by the possible recruitment of endogenous Gαi/o proteins. The empty vector pcDNA3.1 was used to normalize the amount of DNA in each transfection.
To examine the activation of G-protein signalling in live cells, agonist-dependent cellular measurements of BRET between Venus-Gβ1γ2 and masGRK3ct-Nluc were performed as described by Masuho et al.[41]. […] Cells were harvested by centrifugation at 500×g for 5 min and were resuspended in BRET buffer. About 50,000 to 100,000 cells per well were distributed in 96-well flat-bottomed white microplates (Greiner Bio-One) in a volume of 25 µl. […] BRET measurements were made with a microplate reader (POLARstar Omega, BMG Labtech) equipped with two emission photomultiplier tubes, which enabled the detection of two emissions simultaneously with the highest possible resolution of 20 ms per data point. All measurements were performed at room temperature. […] The average baseline value (basal BRET ratio) recorded before stimulation of cells with an agonist was subtracted from the experimental BRET signal values to obtain the ΔBRET ratio.

Experiment [2] has as its target individual subtypes of muscarinic receptors (M1–M5). Details: method as in PMID 31910288. To be noted: summary of Table 1 over subtypes; read-out: Affinity; cited from earlier work.
Experiment [3] concerns the target M3 receptor (Homo sapiens, UniProt P20309). Details: expressed in transfected cells; method as in PMID 31910288. The settings on record: CHO expressing M3; cited from earlier work.
Experiment [4] deals with T1, M1 receptor. Further details: expressed in transfected cells; method as in PMID 31910288. The settings on record: CHO expressing M1; cited from earlier work.
Experiment [5] deals with individual subtypes of muscarinic receptors (M1–M5). Description: [3H]NMS competition binding, summary over subtypes. Further details: species or system human. To be noted: summary of Table 1 over subtypes. How it is done:
CHO cells stably transfected with the genes of individual subtypes of human muscarinic receptors (M1–M5, wild types) were purchased from Missouri S&T cDNA resource center (Rolla, MO, USA) (https://www.cdna.org/home.php?cat=177). Cells were cultured as described previously by Randakova et al.[33]. Cells were grown to confluence in 75 cm^2 flasks in Dulbecco’s modified Eagle’s medium DMEM (Thermo Fisher Scientific; LOT: 2556745) supplemented with 10% fetal bovine serum and geneticin in concentration 50 µg/ml at 37 °C in a humidified incubator containing 5% CO2. The medium was supplemented with 5 mM butyrate for the last 24 h of culture to increase receptor expression. Cells were washed with (phosphate-buffered saline (PBS), mechanically harvested by scraper and centrifugated 1000 × g for 5 min. Cell pellets were kept at − 80 °C.
Membranes were prepared as described previously by Randakova et al.[33]. […]
Non-specific binding was determined in the presence of 10 μM unlabelled atropine. […] The filtration plates were counted in the Microbeta scintillation counter (PerkinElmer). […] The inhibition constant KI was calculated according to Eq. (2). […]

Sequence of M3 receptor (P20309 whole entry): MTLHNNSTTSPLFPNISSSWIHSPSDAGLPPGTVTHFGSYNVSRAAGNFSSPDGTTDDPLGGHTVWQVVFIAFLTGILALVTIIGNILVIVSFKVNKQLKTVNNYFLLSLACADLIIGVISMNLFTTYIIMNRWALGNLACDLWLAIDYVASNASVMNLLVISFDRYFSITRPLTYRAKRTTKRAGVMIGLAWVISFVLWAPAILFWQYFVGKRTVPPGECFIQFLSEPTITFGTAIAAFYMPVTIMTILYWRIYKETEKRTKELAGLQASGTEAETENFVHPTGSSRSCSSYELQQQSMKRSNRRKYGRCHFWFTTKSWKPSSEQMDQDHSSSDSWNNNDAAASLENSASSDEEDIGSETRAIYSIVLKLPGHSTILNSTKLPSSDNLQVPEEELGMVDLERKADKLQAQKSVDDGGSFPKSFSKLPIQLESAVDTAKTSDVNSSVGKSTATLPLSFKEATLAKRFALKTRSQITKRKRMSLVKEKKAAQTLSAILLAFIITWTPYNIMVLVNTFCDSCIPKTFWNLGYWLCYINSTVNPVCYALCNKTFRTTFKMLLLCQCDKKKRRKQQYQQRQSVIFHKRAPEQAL

In the case of `c1csc(C[N+]23CCC(CC2)CC3)c1` [JB-8A], the “Activation of Gαq/11 types” value in experiment [1] is listed as “did not activate any Gαq/11 type”.

For the compound `C[N+]1(Cc2cccs2)CCOCC1` [JB-12-2], the “Activation of Gαq/11 types” value in experiment [1] is “activated all Gαq/11 types”.

As to `COC(=O)C1=CCCN(Cc2cccs2)C1` [JB-13-1], the “Activation of Gαq/11 types” value in experiment [1] is “did not activate any Gαq/11 type”.

For the compound `C[N+]1(Cc2cccs2)CC=CCC1` (stereo not drawn) [JR-6, 1-methyl-1-[(thiophen-2-yl)methyl]-1,2,3,6-tetra hydropyridin-1-ium], in experiment [2], the Ki was about 10 µM. In addition, the IP production result in experiment [3] is given as “marginal response”. For the same compound, in experiment [1], the “Activation magnitude at G11, % of CBC” value is recorded as “approximately 50%”; the “Activation magnitude at G15, % of CBC” value was “approximately 50%”; the “Activation magnitude at Gq, % of CBC” value was “approximately 50%”; the “Activation magnitude at Gα14, % of CBC” value was “approx. 10%”. In addition, the IP production entry in experiment [4] is reported as “weak IP production”.

Turning to `C[N+]1(Cc2ccc(Cl)s2)CC=CCC1` (stereo not drawn) [PN-152, 1-[(5-chlorothiophen-2-yl)methyl]-1-methyl-1,2,3,6-tetrahydropyridin-1-ium], in experiment [5], the “Affinity, times higher than JR-6” value is “three to ten”. Besides, in experiment [1], the “Activation magnitude at G11, % of CBC” value was “approx. 30%”; the “Activation magnitude at G15, % of CBC” value is “approx. 30%”; the “Activation magnitude at Gq, % of CBC” value was “approx. 30%”; the “Activation magnitude at Gα14, % of CBC” value is recorded as “did not activate”.
